Measured values reported in PubChem BioAssay AID1259407 (Chemical Carcinogenesis Research Information System (CCRIS), 2018).
The source made the active and inactive calls. No rule for the calls is given here.

System: CCRIS mutagenicity, Ames/micronucleus/aberration tests
Assay: CCRIS mutagenicity studies
[1] = Test System: AMES SALMONELLA TYPHIMURIUM, Strain/Indicator: TA97, Metabolic Activation: HAMSTER, LIVER, S-9, AROCLOR 1254 (10 OR 30%), Method: PREINCUBATION
[2] = Test System: AMES SALMONELLA TYPHIMURIUM, Strain/Indicator: TA97, Metabolic Activation: NONE, Method: PREINCUBATION
[3] = Test System: AMES SALMONELLA TYPHIMURIUM, Strain/Indicator: TA97, Metabolic Activation: RAT, LIVER, S-9, AROCLOR 1254 (10 OR 30%), Method: PREINCUBATION
[4] = Test System: AMES SALMONELLA TYPHIMURIUM, Strain/Indicator: TA98, Metabolic Activation: HAMSTER, LIVER, S-9, AROCLOR 1254 (10 OR 30%), Method: PREINCUBATION
[5] = Test System: AMES SALMONELLA TYPHIMURIUM, Strain/Indicator: TA98, Metabolic Activation: NONE, Method: PREINCUBATION
[6] = Test System: AMES SALMONELLA TYPHIMURIUM, Strain/Indicator: TA98, Metabolic Activation: RAT, LIVER, S-9, AROCLOR 1254 (10 OR 30%), Method: PREINCUBATION
[7] = Test System: AMES SALMONELLA TYPHIMURIUM, Strain/Indicator: TA100, Metabolic Activation: NONE, Method: PREINCUBATION
[8] = Test System: AMES SALMONELLA TYPHIMURIUM, Strain/Indicator: TA1535, Metabolic Activation: HAMSTER, LIVER, S-9, AROCLOR 1254 (10 OR 30%), Method: PREINCUBATION
[9] = Test System: AMES SALMONELLA TYPHIMURIUM, Strain/Indicator: TA1535, Metabolic Activation: NONE, Method: PREINCUBATION
[10] = Test System: AMES SALMONELLA TYPHIMURIUM, Strain/Indicator: TA1535, Metabolic Activation: RAT, LIVER, S-9, AROCLOR 1254 (10 OR 30%), Method: PREINCUBATION

c1ccc(COCc2ccccc2)cc1
mutagenic call [1]: inactive; negative | mutagenic call [2]: inactive; negative | mutagenic call [3]: inactive; negative | mutagenic call [4]: inactive; negative | mutagenic call [5]: inactive; negative | mutagenic call [6]: inactive; negative | mutagenic call (Test System: AMES SALMONELLA TYPHIMURIUM, Strain/Indicator: TA98, Metabolic Activation: RAT, LIVER, S-9, AROCLOR 1254 (30%), Method: PREINCUBATION): inactive; negative | mutagenic call (Test System: AMES SALMONELLA TYPHIMURIUM, Strain/Indicator: TA100, Metabolic Activation: HAMSTER, LIVER, S-9, AROCLOR 1254 (10%), Method: PREINCUBATION): inactive; negative | mutagenic call (Test System: AMES SALMONELLA TYPHIMURIUM, Strain/Indicator: TA100, Metabolic Activation: HAMSTER, LIVER, S-9, AROCLOR 1254 (30%), Method: PREINCUBATION): inactive; negative | mutagenic call [7]: inactive; negative | mutagenic call (Test System: AMES SALMONELLA TYPHIMURIUM, Strain/Indicator: TA100, Metabolic Activation: RAT, LIVER, S-9, AROCLOR 1254 (10%), Method: PREINCUBATION): inactive; negative | mutagenic call (Test System: AMES SALMONELLA TYPHIMURIUM, Strain/Indicator: TA100, Metabolic Activation: RAT, LIVER, S-9, AROCLOR 1254 (30%), Method: PREINCUBATION): inactive; negative | mutagenic call [8]: inactive; negative | mutagenic call [9]: inactive; negative | mutagenic call [10]: inactive; negative

COc1cc(O)c2c(c1)C(=O)c1cc(C)cc(O)c1C2=O
mutagenic call (Test System: AMES SALMONELLA TYPHIMURIUM, Strain/Indicator: TA98, Metabolic Activation: NONE, Method: STANDARD PLATE): inactive; negative | mutagenic call (Test System: AMES SALMONELLA TYPHIMURIUM, Strain/Indicator: TA98, Metabolic Activation: RAT, LIVER, S-9, AROCLOR 1254, Method: STANDARD PLATE): inactive; negative | mutagenic call (Test System: AMES SALMONELLA TYPHIMURIUM, Strain/Indicator: TA100, Metabolic Activation: NONE, Method: STANDARD PLATE): inactive; negative | mutagenic call (Test System: AMES SALMONELLA TYPHIMURIUM, Strain/Indicator: TA100, Metabolic Activation: RAT, LIVER, S-9, AROCLOR 1254, Method: STANDARD PLATE): inactive; negative | mutagenic call (Test System: AMES SALMONELLA TYPHIMURIUM, Strain/Indicator: TA102, Metabolic Activation: RAT, LIVER, S-9, AROCLOR 1254, Method: STANDARD PLATE): inactive; negative | mutagenic call (Test System: AMES SALMONELLA TYPHIMURIUM, Strain/Indicator: TA1537, Metabolic Activation: NONE, Method: STANDARD PLATE): inactive; negative | mutagenic call (Test System: AMES SALMONELLA TYPHIMURIUM, Strain/Indicator: TA1537, Metabolic Activation: RAT, LIVER, S-9, AROCLOR 1254, Method: STANDARD PLATE): active; positive | mutagenic call (Test System: AMES SALMONELLA TYPHIMURIUM, Strain/Indicator: TA1537, Metabolic Activation: S-9, Method: STANDARD PLATE): active; positive

CSC(C)(C)C(=O)N[C@@H](CS)C(=O)O
mutagenic call [5]: inactive; negative | mutagenic call [7]: inactive; negative | mutagenic call [9]: inactive; negative | mutagenic call (Test System: AMES SALMONELLA TYPHIMURIUM, Strain/Indicator: TA1537, Metabolic Activation: NONE, Method: PREINCUBATION): inactive; negative | mutagenic call (Test System: AMES SALMONELLA TYPHIMURIUM, Strain/Indicator: TA1538, Metabolic Activation: NONE, Method: PREINCUBATION): inactive; negative | mutagenic call (Test System: E. COLI, Strain/Indicator: WP2, Metabolic Activation: NONE, Method: PREINCUBATION): inactive; negative | mutagenic call (Test System: E. COLI, Strain/Indicator: WP2 UVRA, Metabolic Activation: NONE, Method: PREINCUBATION): inactive; negative

Cc1cccc(C(=O)Cl)c1
mutagenic call [5]: inactive; negative | mutagenic call (Test System: AMES SALMONELLA TYPHIMURIUM, Strain/Indicator: TA98, Metabolic Activation: RAT LIVER S-9, PCB, Method: PREINCUBATION): inactive; negative | mutagenic call [7]: inactive; negative | mutagenic call (Test System: AMES SALMONELLA TYPHIMURIUM, Strain/Indicator: TA100, Metabolic Activation: RAT LIVER S-9, PCB, Method: PREINCUBATION): active; positive | mutagenic call (Test System: AMES SALMONELLA TYPHIMURIUM, Strain/Indicator: TA104, Metabolic Activation: NONE, Method: PREINCUBATION): active; positive | mutagenic call (Test System: AMES SALMONELLA TYPHIMURIUM, Strain/Indicator: TA104, Metabolic Activation: RAT LIVER S-9, PCB, Method: PREINCUBATION): active; positive | mutagenic call (Test System: E.COLI, Strain/Indicator: WP2 UVRA, Metabolic Activation: NONE, Method: PREINCUBATION): active; positive | mutagenic call (Test System: E.COLI, Strain/Indicator: WP2 UVRA, Metabolic Activation: RAT LIVER S-9, PCB, Method: PREINCUBATION): active; positive

CCn1c(N)nc2c3ncc(C)nc3ccc21
mutagenic call (Test System: AMES SALMONELLA TYPHIMURIUM, Strain/Indicator: TA98, Metabolic Activation: RAT, LIVER, S-9, AROCLOR 1254, Method: PREINCUBATION): active; positive

CCN(CC)CCCNC(=O)N/N=C/c1ccc([N+](=O)[O-])o1
mutagenic call (Test System: E. COLI, Strain/Indicator: WP2 UVRA, Metabolic Activation: NONE, Method: SPOT): active; positive

C=C(C)[C@@]12OC3(c4ccccc4)O[C@@H]1[C@@H]1[C@@H]4OC4(CO)[C@@H](O)[C@]4(O)C(=O)C(C)=C[C@H]4[C@@]1(O3)[C@H](C)[C@H]2OC(=O)/C=C/C=C/c1ccccc1 (stereo partly drawn)
mutagenic call [1]: inactive; negative | mutagenic call [2]: inactive; negative | mutagenic call [3]: inactive; negative | mutagenic call [4]: inactive; negative | mutagenic call [5]: inactive; negative | mutagenic call [6]: inactive; negative | mutagenic call (Test System: AMES SALMONELLA TYPHIMURIUM, Strain/Indicator: TA100, Metabolic Activation: HAMSTER, LIVER, S-9, AROCLOR 1254 (10 OR 30%), Method: PREINCUBATION): inactive; negative | mutagenic call [7]: inactive; negative | mutagenic call (Test System: AMES SALMONELLA TYPHIMURIUM, Strain/Indicator: TA100, Metabolic Activation: RAT, LIVER, S-9, AROCLOR 1254 (10 OR 30%), Method: PREINCUBATION): inactive; negative | mutagenic call [8]: inactive; negative | mutagenic call [9]: inactive; negative | mutagenic call [10]: inactive; negative

Cc1c2c(c(C)c3ccccc13)-c1cccc3cccc-2c13
mutagenic call (Test System: AMES SALMONELLA TYPHIMURIUM, Strain/Indicator: TA100, Metabolic Activation: RAT, LIVER, S-9, AROCLOR 1254): active; positive
